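Results reflect a 48-hour exposure of cells in 96-well plates to compound at five concentrations. GI50 = concentration required for 50% inhibition of growth. TGI marks complete inhibition of growth.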
Experiments:
Assay in all cases: NCI-60 cell line screen, 48 h; in the data active = GI50 below about 0.43 µM; inactive = the rest
DU-145 prostate = test system: DU-145 prostate
HT29 colon = test system: HT29 colon
HOP-62 NSCLC = test system: HOP-62 NSCLC
COLO 205 colon = test system: COLO 205 colon
NCI-H23 lung = test system: NCI-H23 lung
SW-620 colon = test system: SW-620 colon
M14 melanoma = test system: M14 melanoma
HCT-116 colon = test system: HCT-116 colon
SNB-75 CNS = test system: SNB-75 CNS
HCC-2998 colon = test system: HCC-2998 colon
MDA-MB-435 = test system: MDA-MB-435
KM12 colon = test system: KM12 colon
PC-3 prostate = test system: PC-3 prostate
CCRF-CEM leukemia = test system: CCRF-CEM leukemia
UACC-257 melanoma = test system: UACC-257 melanoma
RPMI-8226 leukemia = test system: RPMI-8226 leukemia
NCI/ADR-RES ovarian = test system: NCI/ADR-RES ovarian
SK-MEL-5 melanoma = test system: SK-MEL-5 melanoma
SK-MEL-28 melanoma = test system: SK-MEL-28 melanoma
HCT-15 colon = test system: HCT-15 colon
OVCAR-5 ovarian = test system: OVCAR-5 ovarian
UACC-62 melanoma = test system: UACC-62 melanoma
786-0 renal = test system: 786-0 renal
A498 renal = test system: A498 renal
SR leukemia = test system: SR leukemia
NCI-H522 lung = test system: NCI-H522 lung
CAKI-1 renal = test system: CAKI-1 renal
SF-268 CNS = test system: SF-268 CNS
MCF7 breast = test system: MCF7 breast
RXF 393 renal = test system: RXF 393 renal
SK-OV-3 ovarian = test system: SK-OV-3 ovarian
BT-549 breast = test system: BT-549 breast
U251 CNS = test system: U251 CNS
NCI-H226 lung = test system: NCI-H226 lung
SK-MEL-2 melanoma = test system: SK-MEL-2 melanoma
T-47D breast = test system: T-47D breast
OVCAR-8 ovarian = test system: OVCAR-8 ovarian
SF-539 CNS = test system: SF-539 CNS
MDA-MB-231 breast = test system: MDA-MB-231 breast
SF-295 CNS = test system: SF-295 CNS
K-562 leukemia = test system: K-562 leukemia
ACHN renal = test system: ACHN renal
NCI-H460 lung = test system: NCI-H460 lung
UO-31 renal = test system: UO-31 renal
LOX IMVI melanoma = test system: LOX IMVI melanoma
SN12C renal = test system: SN12C renal
OVCAR-3 ovarian = test system: OVCAR-3 ovarian
OVCAR-4 ovarian = test system: OVCAR-4 ovarian
HL-60(TB) leukemia = test system: HL-60(TB) leukemia
MOLT-4 leukemia = test system: MOLT-4 leukemia
HS 578T breast = test system: HS 578T breast
SNB-19 CNS = test system: SNB-19 CNS
EKVX NSCLC = test system: EKVX NSCLC
TK-10 renal = test system: TK-10 renal
MALME-3M melanoma = test system: MALME-3M melanoma
IGROV1 ovarian = test system: IGROV1 ovarian
A549 NSCLC = test system: A549 NSCLC

COc1cc(C2CC(=O)c3c(C)nn(-c4nc5ccccc5[nH]4)c3C2)cc(OC)c1OC (stereo not given)
7.8 µM: TGI (RXF 393 renal)
> 100 µM: TGI (DU-145 prostate) | TGI (HT29 colon) | TGI (HOP-62 NSCLC) | TGI (COLO 205 colon) | TGI (NCI-H23 lung) | TGI (SW-620 colon) | TGI (M14 melanoma) | TGI (HCT-116 colon) | TGI (HCC-2998 colon) | TGI (MDA-MB-435) | TGI (KM12 colon) | TGI (PC-3 prostate) | TGI (CCRF-CEM leukemia) | TGI (UACC-257 melanoma) | TGI (RPMI-8226 leukemia) | TGI (NCI/ADR-RES ovarian) | TGI (SK-MEL-5 melanoma) | TGI (SK-MEL-28 melanoma) | TGI (HCT-15 colon) | TGI (OVCAR-5 ovarian) | TGI (UACC-62 melanoma) | TGI (786-0 renal) | TGI (A498 renal) | TGI (SR leukemia) | TGI (NCI-H522 lung) | TGI (CAKI-1 renal) | TGI (SF-268 CNS) | TGI (MCF7 breast) | TGI (SK-OV-3 ovarian) | TGI (BT-549 breast)
inactive: GI50 (DU-145 prostate) > 100 µM | GI50 (HT29 colon) > 100 µM | GI50 (HOP-62 NSCLC) 3.61 µM | GI50 (COLO 205 colon) > 100 µM | GI50 (NCI-H23 lung) > 100 µM | GI50 (SW-620 colon) > 100 µM | GI50 (M14 melanoma) > 100 µM | GI50 (HCT-116 colon) 7.39 µM | GI50 (SNB-75 CNS) 1.72 µM | GI50 (HCC-2998 colon) > 100 µM | GI50 (MDA-MB-435) > 100 µM | GI50 (KM12 colon) > 100 µM | GI50 (PC-3 prostate) > 100 µM | GI50 (CCRF-CEM leukemia) > 100 µM | GI50 (UACC-257 melanoma) > 100 µM | GI50 (RPMI-8226 leukemia) > 100 µM | GI50 (NCI/ADR-RES ovarian) > 100 µM | GI50 (SK-MEL-5 melanoma) > 100 µM | GI50 (SK-MEL-28 melanoma) > 100 µM | GI50 (HCT-15 colon) > 100 µM | GI50 (OVCAR-5 ovarian) > 100 µM | GI50 (UACC-62 melanoma) 14.6 µM | GI50 (786-0 renal) 3.34 µM | GI50 (A498 renal) 7.06 µM | GI50 (SR leukemia) > 100 µM | GI50 (NCI-H522 lung) 2.64 µM | GI50 (CAKI-1 renal) > 100 µM | GI50 (SF-268 CNS) 8.01 µM | GI50 (MCF7 breast) > 100 µM | GI50 (RXF 393 renal) 2.12 µM | GI50 (SK-OV-3 ovarian) 4.12 µM | GI50 (BT-549 breast) 76.6 µM
3.46 µM: TGI (SNB-75 CNS)

c1cc2ccc3cc2cc1CNCCOCCNCc1ccc2ccc(cc2c1)CNCCOCCNC3
> 100 µM: TGI (DU-145 prostate) | TGI (HT29 colon) | TGI (HOP-62 NSCLC) | TGI (COLO 205 colon) | TGI (NCI-H23 lung) | TGI (SW-620 colon) | TGI (M14 melanoma) | TGI (HCT-116 colon) | TGI (U251 CNS) | TGI (HCC-2998 colon) | TGI (NCI-H226 lung) | TGI (SK-MEL-2 melanoma) | TGI (T-47D breast) | TGI (OVCAR-8 ovarian) | TGI (MDA-MB-435) | TGI (SF-539 CNS) | TGI (KM12 colon) | TGI (MDA-MB-231 breast) | TGI (SF-295 CNS) | TGI (UACC-257 melanoma) | TGI (NCI/ADR-RES ovarian) | TGI (K-562 leukemia) | TGI (ACHN renal) | TGI (NCI-H460 lung) | TGI (UO-31 renal) | TGI (LOX IMVI melanoma) | TGI (SK-MEL-5 melanoma) | TGI (SK-MEL-28 melanoma) | TGI (HCT-15 colon) | TGI (SN12C renal) | TGI (OVCAR-3 ovarian) | TGI (OVCAR-5 ovarian) | TGI (OVCAR-4 ovarian) | TGI (HL-60(TB) leukemia) | TGI (UACC-62 melanoma) | TGI (MOLT-4 leukemia) | TGI (HS 578T breast) | TGI (SNB-19 CNS) | TGI (786-0 renal) | TGI (A498 renal) | TGI (SR leukemia) | TGI (EKVX NSCLC) | TGI (NCI-H522 lung) | TGI (TK-10 renal) | TGI (CAKI-1 renal) | TGI (MALME-3M melanoma) | TGI (SF-268 CNS) | TGI (MCF7 breast) | TGI (IGROV1 ovarian) | TGI (RXF 393 renal) | TGI (SK-OV-3 ovarian) | TGI (BT-549 breast) | TGI (A549 NSCLC)
inactive: GI50 (DU-145 prostate) > 100 µM | GI50 (HT29 colon) > 100 µM | GI50 (HOP-62 NSCLC) > 100 µM | GI50 (COLO 205 colon) > 100 µM | GI50 (NCI-H23 lung) > 100 µM | GI50 (SW-620 colon) > 100 µM | GI50 (M14 melanoma) > 100 µM | GI50 (HCT-116 colon) > 100 µM | GI50 (U251 CNS) > 100 µM | GI50 (HCC-2998 colon) > 100 µM | GI50 (NCI-H226 lung) > 100 µM | GI50 (SK-MEL-2 melanoma) > 100 µM | GI50 (T-47D breast) > 100 µM | GI50 (OVCAR-8 ovarian) > 100 µM | GI50 (MDA-MB-435) > 100 µM | GI50 (SF-539 CNS) > 100 µM | GI50 (KM12 colon) > 100 µM | GI50 (MDA-MB-231 breast) > 100 µM | GI50 (SF-295 CNS) > 100 µM | GI50 (UACC-257 melanoma) > 100 µM | GI50 (NCI/ADR-RES ovarian) > 100 µM | GI50 (K-562 leukemia) > 100 µM | GI50 (ACHN renal) > 100 µM | GI50 (NCI-H460 lung) > 100 µM | GI50 (UO-31 renal) > 100 µM | GI50 (LOX IMVI melanoma) > 100 µM | GI50 (SK-MEL-5 melanoma) > 100 µM | GI50 (SK-MEL-28 melanoma) > 100 µM | GI50 (HCT-15 colon) > 100 µM | GI50 (SN12C renal) > 100 µM | GI50 (OVCAR-3 ovarian) > 100 µM | GI50 (OVCAR-5 ovarian) > 100 µM | GI50 (OVCAR-4 ovarian) > 100 µM | GI50 (HL-60(TB) leukemia) > 100 µM | GI50 (UACC-62 melanoma) > 100 µM | GI50 (MOLT-4 leukemia) > 100 µM | GI50 (HS 578T breast) > 100 µM | GI50 (SNB-19 CNS) > 100 µM | GI50 (786-0 renal) > 100 µM | GI50 (A498 renal) > 100 µM | GI50 (SR leukemia) > 100 µM | GI50 (EKVX NSCLC) > 100 µM | GI50 (NCI-H522 lung) > 100 µM | GI50 (TK-10 renal) > 100 µM | GI50 (CAKI-1 renal) > 100 µM | GI50 (MALME-3M melanoma) > 100 µM | GI50 (SF-268 CNS) > 100 µM | GI50 (MCF7 breast) > 100 µM | GI50 (IGROV1 ovarian) > 100 µM | GI50 (RXF 393 renal) > 100 µM | GI50 (SK-OV-3 ovarian) > 100 µM | GI50 (BT-549 breast) > 100 µM | GI50 (A549 NSCLC) > 100 µM

From PubChem BioAssay (NCI)
